These results are taken from ChEMBL document CHEMBL3351304, “Bioactive constituents from the green alga Caulerpa racemosa” (Bioorg Med Chem, 2015).

Some results are limits rather than exact numbers.

A short description of assay [1]: Cytotoxicity against human HL60 cells by SRB assay. In kind it is functional, cell-based. Conditions: HL-60. Background: The SRB assay estimates cell density from bound dye.
For assay [2], the target named is T1, Tyrosine-protein phosphatase non-receptor type 2 (Homo sapiens, UniProt P17706).
T1 sequence (P17706 whole entry): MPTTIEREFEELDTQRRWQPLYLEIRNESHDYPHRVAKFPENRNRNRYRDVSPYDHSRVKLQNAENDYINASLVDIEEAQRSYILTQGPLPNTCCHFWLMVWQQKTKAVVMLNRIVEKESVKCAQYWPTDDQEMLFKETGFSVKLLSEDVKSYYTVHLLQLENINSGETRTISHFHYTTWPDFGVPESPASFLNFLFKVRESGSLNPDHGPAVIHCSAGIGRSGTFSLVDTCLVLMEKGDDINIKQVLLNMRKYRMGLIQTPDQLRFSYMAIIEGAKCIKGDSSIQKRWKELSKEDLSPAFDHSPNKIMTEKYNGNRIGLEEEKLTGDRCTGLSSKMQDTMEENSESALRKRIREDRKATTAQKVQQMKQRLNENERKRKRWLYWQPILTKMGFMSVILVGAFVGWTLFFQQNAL
Put plainly: Inhibition of TC-PTP (unknown origin) using pNPP as substrate by spectrophotometry.

The next assay has as its system A549. Put plainly: Cytotoxicity against human A549 cells by SRB assay. In kind it is functional, cell-based.
Assay [3] has as its target T2, M-phase inducer phosphatase 2 (Homo sapiens, UniProt P30305).
T2 sequence (P30305 whole entry): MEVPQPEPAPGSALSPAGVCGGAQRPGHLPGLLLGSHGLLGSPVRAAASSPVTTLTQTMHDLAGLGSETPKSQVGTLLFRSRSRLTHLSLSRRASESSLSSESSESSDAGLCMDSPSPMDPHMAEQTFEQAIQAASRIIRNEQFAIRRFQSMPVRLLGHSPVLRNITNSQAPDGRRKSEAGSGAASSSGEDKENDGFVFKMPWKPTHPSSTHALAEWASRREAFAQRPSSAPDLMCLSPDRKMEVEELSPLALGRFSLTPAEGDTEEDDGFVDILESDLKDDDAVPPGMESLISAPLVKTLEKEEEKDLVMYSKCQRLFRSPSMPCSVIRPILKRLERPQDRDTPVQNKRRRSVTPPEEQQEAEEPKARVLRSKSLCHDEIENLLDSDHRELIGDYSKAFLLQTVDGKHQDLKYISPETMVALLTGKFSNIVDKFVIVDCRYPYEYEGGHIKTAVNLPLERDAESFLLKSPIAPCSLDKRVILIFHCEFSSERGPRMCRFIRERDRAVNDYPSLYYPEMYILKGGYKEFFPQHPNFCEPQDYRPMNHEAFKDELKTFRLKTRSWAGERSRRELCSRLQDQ
Put plainly: Inhibition of CDC25B (unknown origin) using pNPP as substrate by spectrophotometry.

Assay [4] deals with T3, Tyrosine-protein phosphatase non-receptor type 11 (Homo sapiens) (UniProt Q06124).
T3 sequence (whole entry): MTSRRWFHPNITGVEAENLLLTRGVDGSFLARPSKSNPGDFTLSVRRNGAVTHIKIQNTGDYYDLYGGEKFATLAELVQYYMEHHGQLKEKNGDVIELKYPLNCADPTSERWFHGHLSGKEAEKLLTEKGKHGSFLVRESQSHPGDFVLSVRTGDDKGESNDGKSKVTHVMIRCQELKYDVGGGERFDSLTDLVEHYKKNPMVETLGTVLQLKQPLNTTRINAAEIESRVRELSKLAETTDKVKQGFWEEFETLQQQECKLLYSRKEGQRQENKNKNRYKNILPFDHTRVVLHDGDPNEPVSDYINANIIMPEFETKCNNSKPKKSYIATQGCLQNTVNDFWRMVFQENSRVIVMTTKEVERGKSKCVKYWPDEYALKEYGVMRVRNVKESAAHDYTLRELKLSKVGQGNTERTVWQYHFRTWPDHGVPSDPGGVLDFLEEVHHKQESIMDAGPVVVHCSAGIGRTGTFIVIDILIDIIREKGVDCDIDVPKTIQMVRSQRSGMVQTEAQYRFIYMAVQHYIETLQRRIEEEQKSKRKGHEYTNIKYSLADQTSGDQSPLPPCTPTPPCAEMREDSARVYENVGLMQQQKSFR
Put plainly: Inhibition of SHP2 (unknown origin) using pNPP as substrate at 20 ug/ml by spectrophotometry.

For assay [5], the target named is T4, Tyrosine-protein phosphatase non-receptor type 1 (Homo sapiens, UniProt P18031).
T4 sequence (P18031 whole entry): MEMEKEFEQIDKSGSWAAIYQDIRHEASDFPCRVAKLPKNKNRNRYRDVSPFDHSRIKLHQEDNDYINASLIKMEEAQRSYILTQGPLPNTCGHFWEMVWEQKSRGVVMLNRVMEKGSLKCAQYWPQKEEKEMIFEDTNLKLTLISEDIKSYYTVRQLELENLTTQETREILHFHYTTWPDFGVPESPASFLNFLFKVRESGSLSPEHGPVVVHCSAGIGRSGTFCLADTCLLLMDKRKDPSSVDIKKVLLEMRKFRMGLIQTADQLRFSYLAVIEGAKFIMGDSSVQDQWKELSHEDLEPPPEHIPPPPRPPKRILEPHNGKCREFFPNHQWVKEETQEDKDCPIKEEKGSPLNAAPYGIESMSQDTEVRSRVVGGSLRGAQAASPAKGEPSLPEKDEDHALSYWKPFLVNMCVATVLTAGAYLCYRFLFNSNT
In words: Inhibition of purified recombinant PTP1B catalytic domain (unknown origin) using pNPP as substrate by spectrophotometry.

For assay [6], the target named is Receptor-type tyrosine-protein phosphatase F (Homo sapiens) (UniProt P10586). In words: Inhibition of LAR (unknown origin) using pNPP as substrate at 20 ug/ml by spectrophotometry.
Chain of Receptor-type tyrosine-protein phosphatase F (Homo sapiens) (P10586 whole entry): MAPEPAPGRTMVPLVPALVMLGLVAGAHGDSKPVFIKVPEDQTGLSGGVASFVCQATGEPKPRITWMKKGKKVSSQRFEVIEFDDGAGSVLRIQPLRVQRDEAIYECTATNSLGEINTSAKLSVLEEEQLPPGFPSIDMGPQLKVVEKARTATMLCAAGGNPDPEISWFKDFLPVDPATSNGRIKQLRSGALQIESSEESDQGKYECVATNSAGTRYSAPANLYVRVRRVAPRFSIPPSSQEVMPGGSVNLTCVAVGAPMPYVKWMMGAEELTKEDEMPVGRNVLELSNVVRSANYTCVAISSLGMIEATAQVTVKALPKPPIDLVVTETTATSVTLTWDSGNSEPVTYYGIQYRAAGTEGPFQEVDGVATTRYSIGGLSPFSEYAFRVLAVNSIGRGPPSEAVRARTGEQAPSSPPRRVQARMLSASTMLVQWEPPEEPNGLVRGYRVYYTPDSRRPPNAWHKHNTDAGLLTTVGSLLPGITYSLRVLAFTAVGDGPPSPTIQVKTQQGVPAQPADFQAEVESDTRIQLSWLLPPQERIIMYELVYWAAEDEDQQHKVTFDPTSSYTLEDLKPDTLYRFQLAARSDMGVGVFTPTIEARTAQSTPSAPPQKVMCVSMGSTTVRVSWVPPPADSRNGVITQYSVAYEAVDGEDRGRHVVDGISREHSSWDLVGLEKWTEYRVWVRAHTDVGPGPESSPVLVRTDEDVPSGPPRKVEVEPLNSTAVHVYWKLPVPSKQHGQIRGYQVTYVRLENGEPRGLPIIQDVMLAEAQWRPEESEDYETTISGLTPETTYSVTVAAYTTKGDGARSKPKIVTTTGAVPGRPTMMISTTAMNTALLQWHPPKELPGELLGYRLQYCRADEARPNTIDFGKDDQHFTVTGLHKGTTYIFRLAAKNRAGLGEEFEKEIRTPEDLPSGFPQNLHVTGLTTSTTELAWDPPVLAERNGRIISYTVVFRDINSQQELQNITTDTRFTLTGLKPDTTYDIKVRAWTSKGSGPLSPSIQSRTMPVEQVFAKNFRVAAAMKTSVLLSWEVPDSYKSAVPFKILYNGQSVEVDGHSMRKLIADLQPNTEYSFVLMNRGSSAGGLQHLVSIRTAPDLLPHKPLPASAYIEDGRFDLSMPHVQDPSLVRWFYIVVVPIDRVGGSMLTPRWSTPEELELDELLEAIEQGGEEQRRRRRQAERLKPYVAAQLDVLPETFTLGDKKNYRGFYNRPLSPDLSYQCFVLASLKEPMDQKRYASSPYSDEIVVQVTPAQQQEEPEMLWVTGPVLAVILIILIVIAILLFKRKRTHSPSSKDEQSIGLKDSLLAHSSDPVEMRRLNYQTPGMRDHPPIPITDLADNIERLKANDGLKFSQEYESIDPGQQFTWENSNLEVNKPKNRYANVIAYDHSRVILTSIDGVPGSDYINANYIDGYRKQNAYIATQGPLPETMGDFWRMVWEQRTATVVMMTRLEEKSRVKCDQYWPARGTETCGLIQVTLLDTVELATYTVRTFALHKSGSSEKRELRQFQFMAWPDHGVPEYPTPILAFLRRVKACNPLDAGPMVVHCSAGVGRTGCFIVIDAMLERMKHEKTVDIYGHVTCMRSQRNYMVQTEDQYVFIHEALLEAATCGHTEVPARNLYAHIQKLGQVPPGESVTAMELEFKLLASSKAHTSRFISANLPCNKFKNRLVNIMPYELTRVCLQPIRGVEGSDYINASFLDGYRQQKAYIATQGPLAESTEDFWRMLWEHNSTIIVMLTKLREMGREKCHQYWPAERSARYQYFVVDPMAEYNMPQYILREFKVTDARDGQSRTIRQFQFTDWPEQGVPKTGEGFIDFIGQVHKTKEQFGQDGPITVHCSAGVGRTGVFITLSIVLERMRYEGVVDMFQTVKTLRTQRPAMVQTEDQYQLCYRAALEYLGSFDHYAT
Assay [7] addresses T5, Tyrosine-protein phosphatase non-receptor type 6 (Homo sapiens, UniProt P29350). Put plainly: Inhibition of SHP1 (unknown origin) using pNPP as substrate at 20 ug/ml by spectrophotometry.
Assay [8] deals with T6, M-phase inducer phosphatase 2 (Homo sapiens) (UniProt P30305).
T6 sequence (whole entry): T2 sequence (P30305 whole entry)
Put plainly: Inhibition of CDC25B (unknown origin) using pNPP as substrate at 20 ug/ml by spectrophotometry.

Assay [9] concerns the target T7, Tyrosine-protein phosphatase non-receptor type 2 (Homo sapiens) (UniProt P17706).
T7 sequence (whole entry): T1 sequence (P17706 whole entry)
In words: Inhibition of TC-PTP (unknown origin) using pNPP as substrate at 20 ug/ml by spectrophotometry.

The target in assay [10] is T5, Tyrosine-protein phosphatase non-receptor type 6.
Description: Inhibition of SHP1 (unknown origin) using pNPP as substrate by spectrophotometry
For a further assay, the system named is SH-SY5Y. Put plainly: Neuroprotective activity against amyloid beta(25 to 35)-induced cell damage in human SH-SY5Y cells assessed as increase in cell viability preincubated at 10 uM 2 hrs prior to challenge by MTT assay relative to control. It is filed as functional.

T5 sequence (P29350 whole entry): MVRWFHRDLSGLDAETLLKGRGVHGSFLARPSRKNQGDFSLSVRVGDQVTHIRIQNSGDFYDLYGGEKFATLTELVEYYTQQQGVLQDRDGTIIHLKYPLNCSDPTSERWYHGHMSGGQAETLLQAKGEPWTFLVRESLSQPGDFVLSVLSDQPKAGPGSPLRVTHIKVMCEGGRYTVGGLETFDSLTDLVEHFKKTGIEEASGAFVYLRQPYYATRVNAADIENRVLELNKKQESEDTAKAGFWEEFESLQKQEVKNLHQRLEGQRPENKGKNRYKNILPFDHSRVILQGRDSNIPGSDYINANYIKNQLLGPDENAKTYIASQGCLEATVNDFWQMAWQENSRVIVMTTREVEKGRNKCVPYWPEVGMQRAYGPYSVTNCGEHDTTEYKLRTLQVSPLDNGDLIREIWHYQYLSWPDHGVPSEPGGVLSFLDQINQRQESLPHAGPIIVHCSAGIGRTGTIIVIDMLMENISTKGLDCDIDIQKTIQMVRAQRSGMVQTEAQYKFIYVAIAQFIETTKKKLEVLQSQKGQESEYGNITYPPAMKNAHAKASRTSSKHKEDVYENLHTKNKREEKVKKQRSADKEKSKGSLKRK

A word on the IC50: it is the midpoint of a concentration-inhibition curve. In turn, `CC1=CC(=O)OC1CC[C@H](C)CCC[C@H](C)CCCC(C)C` (stereo not given in full) came in with a concentration for half-maximal inhibition (IC50) in assay [1] of 49.3 µM.
As a reminder, the inhibition is the relative decrease from the control value, in per cent. A higher inhibition goes with a response far below the control. Turning to `CC1=C(CCC(=O)OC/C=C(\C)CCC[C@H](C)CCC[C@H](C)CCCC(C)C)C(=O)NC1=O`, the 50% inhibitory concentration (IC50) in assay [2] was 12.6 µM; with A549, above 100 µM; in assay [3] it was 42.9 µM; in assay [5], 2.3 µM; in assay [1], above 100 µM. For the same molecule, the inhibition in [4], in assay [6] and in assay [7] was below 50% throughout.
Consider `C=C[C@](O)(CC[C@@H](C)[C@H]1CC[C@H]2[C@@H]3CC=C4C[C@@H](O)CC[C@]4(C)[C@H]3CC[C@]12C)C(C)C`, for which the IC50 in the assay with A549 is above 100 µM; in assay [5] it was 41.7 µM; in assay [1] it was above 100 µM. In addition, the inhibition in [8], in assay [9], in assay [4], in [6] and in assay [7] was below 50% throughout.
With `CC(=O)OC/C=C(\C)CCC[C@H](C)CCC[C@H](C)CCCC(C)C`, the IC50 in the assay on A549 was above 100 µM; in [5] it was 50 µM; in assay [1], above 100 µM. Further, the inhibition in assay [8], in assay [9], in assay [4], in assay [6] and in assay [7] was below 50% in each case.
Take `C/C(=C\CO)CCC[C@H](C)CCC[C@H](C)CCCC(C)C` [TRANS-PHYTOL]: the IC50 in the assay on A549 is above 100 µM; in assay [5], 32.6 µM; in assay [1] it was above 100 µM. For the same molecule, the inhibition in assay [8], in assay [9], in [4], in assay [6] and in [7] was below 50% in each case.
Turning to `COc1cccc2c1C(=O)c1c(O)c3c(c(O)c1C2=O)C[C@@](O)(C(=O)CO)C[C@@H]3O[C@H]1C[C@H](N)[C@H](O)[C@H](C)O1` [DOXORUBICIN], in [1], the IC50 came to 0.123 µM.
In assay [3], `CC1(C)CC[C@]2(C(=O)O)CC[C@]3(C)C(=CC[C@@H]4[C@@]5(C)CC[C@H](O)C(C)(C)[C@@H]5CC[C@]43C)[C@@H]2C1` [OLEANOLIC_ACID] returned an IC50 of 0.98 µM. The inhibition in assay [4], in assay [6] and in [7] was below 50% in each case.
In [10], SODIUM ORTHOVANAD showed an IC50 of 16.5 µM.
As for `CC(=O)/C(=C/C[C@@H](C)[C@H]1CC[C@H]2[C@@H]3CC=C4C[C@@H](O)CC[C@]4(C)[C@H]3CC[C@]12C)C(C)C`, the IC50 was above 100 µM with A549, 3.8 µM in assay [5] and above 100 µM in [1]. Besides, the inhibition in [8], in assay [9], in assay [4], in assay [6] and in [7] was below 50% throughout. In addition, in the assay with SH-SY5Y, the Activity worked out at 11.31%.
For the molecule `CC(=O)[C@]1(O)C(C)=C(C)C(=O)[C@@]12CC[C@](C)(CCC[C@H](C)CCC[C@H](C)CCCC(C)C)O2`, the IC50 was above 100 µM in the assay on A549 and 67.4 µM in assay [1].
In the case of `CC1=C(C)C(=O)C(CC[C@](C)(O)CCC[C@H](C)CCC[C@H](C)CCCC(C)C)=C(C)C1=O`, the 50% inhibitory concentration (IC50) in assay [2] was determined as 35.1 µM; in the assay with A549, 85.3 µM; in assay [3], 23.2 µM; in [5], 3.85 µM; in assay [1], 45 µM. In addition, the inhibition in assay [4], in assay [6] and in assay [7] was below 50% throughout.
Turning to `CC(C)C(=O)/C=C/[C@@H](C)[C@H]1CC[C@H]2[C@@H]3CC=C4C[C@@H](O)CC[C@]4(C)[C@H]3CC[C@]12C`, the results for the IC50 (with A549; in [5]; in assay [1]) were above 100 µM, 50 µM and above 100 µM, respectively. In addition, the inhibition in assay [8], in assay [9], in assay [4], in assay [6] and in assay [7] was below 50% each time. Moreover, the Activity with SH-SY5Y was 15.98%.
As to `O=C(O[C@@H]1Cc2c(O)cc(O)cc2O[C@@H]1c1cc(O)c(O)c(O)c1)c1cc(O)c(O)c(O)c1` [EPIGALOCATECHIN GALLATE], in the assay on SH-SY5Y, the Activity is on record as 16.57%.
Regarding `C=C[C@@](O)(CC[C@@H](C)[C@H]1CC[C@H]2[C@@H]3CC=C4C[C@@H](O)CC[C@]4(C)[C@H]3CC[C@]12C)C(C)C`, the IC50 with A549 is above 100 µM; in [5], 10.3 µM; in [1], above 100 µM. Moreover, the inhibition in assay [8], in assay [9], in [4], in assay [6] and in assay [7] was below 50% throughout.
With `CC1=C(C)C(=O)[C@@]2(CC[C@@](C)(CCC[C@H](C)CCC[C@H](C)CCCC(C)C)O2)[C@@](C)(O)C1=O`, the values for the IC50 (with A549; in assay [5]; in assay [1]) were above 100 µM, 11 µM and above 100 µM, respectively. The inhibition in assay [8], in assay [9], in [4], in assay [6] and in [7] was below 50% in each case. Moreover, in the assay on SH-SY5Y, the Activity was 13.85%.
